Data reported in PubChem BioAssay (NCI).
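In this assay, cells in 96-well plates receive the compound at five concentrations for 48 hours. Endpoints are linearly interpolated between the surrounding concentrations. At the GI50, growth is halved. Definition used: TGI = concentration required for complete inhibition of growth.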 Where a SMILES comes first, the peptide text is derived from it. [ ]: non-standard residue; d: D form. Phe(4-Cl) = N[CH](Cc1ccc(Cl)cc1)C(=O)O

Experiments:
Assay in all cases: growth of human tumour cells (NCI), 48 h
786-0 renal = tested on: 786-0 renal
SK-MEL-2 melanoma = tested on: SK-MEL-2 melanoma
SNB-19 CNS = tested on: SNB-19 CNS
EKVX NSCLC = tested on: EKVX NSCLC
KM12 colon = tested on: KM12 colon
HCC-2998 colon = tested on: HCC-2998 colon
U251 CNS = tested on: U251 CNS
UACC-257 melanoma = tested on: UACC-257 melanoma
SF-268 CNS = tested on: SF-268 CNS
SR leukemia = tested on: SR leukemia

| SMILES | TGI (786-0 renal) | TGI (SK-MEL-2 melanoma) | TGI (SNB-19 CNS) | TGI (EKVX NSCLC) | TGI (KM12 colon) | TGI (HCC-2998 colon) | TGI (U251 CNS) | TGI (UACC-257 melanoma) | TGI (SF-268 CNS) | TGI (SR leukemia) | GI50 (786-0 renal) | GI50 (SNB-19 CNS) | GI50 (EKVX NSCLC) | GI50 (KM12 colon) | GI50 (SR leukemia) | GI50 (HCC-2998 colon) | GI50 (SF-268 CNS) | GI50 (U251 CNS) | GI50 (UACC-257 melanoma) | GI50 (SK-MEL-2 melanoma) |
| --- | --- | --- | --- | --- | --- | --- | --- | --- | --- | --- | --- | --- | --- | --- | --- | --- | --- | --- | --- | --- |
| CC(O)C(NC(=O)C(Cc1ccccc1)NC(=O)C(NC(=O)C(CCCCN)NC(=O)C(Cc1c[nH]c2ccccc12)NC(=O)C(Cc1ccc(O)cc1)NC(=O)C(Cc1ccc(Cl)cc1)NC(=O)C(N)Cc1ccccc1)C(C)O)C(N)=O (stereo not drawn) (H-F[Phe(4-Cl)]YWKTFT-NH2; configuration not given here) | 41.3 µM | 39.3 µM | 34.1 µM | 32.2 µM | 33.5 µM | 73.7 µM | 35.8 µM | – | – | – | – | – | – | – | – | – | – | – | – | – |
| CC(C)(C)OC(=O)Cc1ccc2c(ccn2Cc2ccccc2)c1 | > 100 µM | > 100 µM | > 100 µM | > 100 µM | > 100 µM | > 100 µM | > 100 µM | > 100 µM | > 100 µM | – | – | – | – | – | – | – | – | – | – | – |
| CCCCCCCC(CC(=O)NC(CO)C(=O)NC(CO)CC(C)C)OC(=O)CC(CCCCCCC)OC(=O)CC(CCCCCCC)OC1OC(C)C(O)C(OC2OC(C)C(O)C(OC(C)=O)C2O)C1O (stereo not drawn) | 26.4 µM | – | 20.4 µM | 28.7 µM | 22.1 µM | 23.2 µM | 17.2 µM | 18.5 µM | 25.9 µM | 13.2 µM | – | – | – | – | – | – | – | – | – | – |
| O=c1cccccc1NCCCNc1cccccc1=O | > 100 µM | > 100 µM | > 100 µM | > 100 µM | > 100 µM | – | > 100 µM | > 100 µM | > 100 µM | > 100 µM | – | – | – | – | – | – | – | – | – | – |
| O=C1c2ccccc2-c2c1c1ccccc1c(=O)n2Cc1ccccc1 | > 100 µM | > 100 µM | – | > 100 µM | > 100 µM | – | > 100 µM | > 100 µM | > 100 µM | > 100 µM | – | – | – | – | – | – | – | – | – | – |
| CCOC(=O)c1cc(/C(=N\O)c2cc(OC)c(OC)c(OC)c2)n2cc(C)cc(C)c12 | 10 µM | – | > 100 µM | > 100 µM | > 100 µM | > 100 µM | 9.32 µM | – | > 100 µM | 4.57 µM | 3.01 µM | 4.57 µM | 3.83 µM | 2.31 µM | 0.56 µM | 5.78 µM | 3.9 µM | 2.64 µM | – | – |
| COc1ccc(C(=O)c2cc(C)c(OC)c(C)c2)c(OC)c1N(C(=O)C(Cl)Cl)C(=O)C(Cl)Cl | > 100 µM | > 100 µM | > 100 µM | > 100 µM | – | > 41.2 µM | > 100 µM | > 100 µM | > 100 µM | – | 0.0455 µM | 0.0492 µM | 0.0735 µM | 0.0461 µM | – | 0.0799 µM | 1.01 µM | 0.0553 µM | > 69.4 µM | 0.0669 µM |
| CN(C)CC/C(=N\Nc1c(Cl)cccc1Cl)c1ccccc1 | 31.3 µM | 34.1 µM | > 100 µM | 94.7 µM | 34.8 µM | – | 31.3 µM | 32.7 µM | – | 63.4 µM | – | – | – | – | – | – | – | – | – | – |
| O=C(CCl)Nc1ccc(Cl)cc1 | 19.5 µM | 6.16 µM | 25.6 µM | 26.3 µM | 21 µM | 24.9 µM | 5.26 µM | 27.1 µM | 7.66 µM | – | 4.64 µM | 10.3 µM | 6.93 µM | 8.06 µM | – | 11.3 µM | 2.72 µM | 2.22 µM | 10.4 µM | 2.51 µM |
| O=C1NC(=O)c2ccc([N+](=O)[O-])c3cccc1c23 | 27 µM | 84.1 µM | 33.7 µM | 62.4 µM | – | 52.3 µM | 32.3 µM | 33.1 µM | 62 µM | – | – | – | – | – | – | – | – | – | – | – |
| NCCCC[C@@H]1NC(=O)[C@H]2CCCN2C(=O)[C@H](Cc2ccccc2)NC(=O)[C@H](Cc2ccccc2)CNC1=O | > 100 µM | > 100 µM | > 100 µM | > 100 µM | > 100 µM | > 100 µM | > 100 µM | > 100 µM | > 100 µM | – | > 100 µM | > 100 µM | > 100 µM | > 100 µM | – | > 100 µM | > 100 µM | > 100 µM | > 100 µM | > 100 µM |
| COc1ccc(N2C(=O)C3c4[nH]c5ccc(C)cc5c4C4CCC(C(C)(C)C)CC4C3C2=O)cc1 (stereo not drawn) | 48.7 µM | – | 62.6 µM | > 100 µM | > 100 µM | > 100 µM | – | 77.8 µM | 64.5 µM | 32.4 µM | – | – | – | – | – | – | – | – | – | – |
| CC1(C)C2CC(O)C1(C)CC2=O (stereo not drawn) | > 100 µM | – | > 100 µM | – | > 100 µM | > 100 µM | > 100 µM | > 100 µM | > 100 µM | > 100 µM | – | – | – | – | – | – | – | – | – | – |
| CC(=O)[CH-]C(=O)c1ccccc1.CC(=O)[CH-]C(=O)c1ccccc1.O=C([O-])c1ccc([O-])cc1.O=C([O-])c1ccc([O-])cc1.[Ti+4] | > 100 µM | > 100 µM | > 100 µM | 79.6 µM | 90.1 µM | > 100 µM | > 100 µM | – | > 100 µM | – | 54.4 µM | 52.3 µM | 23.9 µM | 25 µM | – | 46.3 µM | 25 µM | 45 µM | – | 36.9 µM |
| O=C(O)CP(=S)(S)c1ccccc1 (stereo not drawn) | > 100 µM | > 100 µM | > 100 µM | > 100 µM | > 100 µM | – | > 100 µM | > 100 µM | > 100 µM | > 100 µM | – | – | – | – | – | – | – | – | – | – |
| Cc1ccc(Nc2nc3c(s2)C(=O)c2ccccc2C3=O)c(C)c1 | 32.5 µM | 28.2 µM | 27.7 µM | 33 µM | 33 µM | 31.8 µM | 42.5 µM | 22.8 µM | 24.1 µM | – | – | – | – | – | – | – | – | – | – | – |
| CC(=O)OC1Oc2ccccc2-c2oc(=O)c(-c3cc4ccc(N(C)C)cc4oc3=O)cc21 (stereo not drawn) | 39.3 µM | 29.9 µM | 36 µM | 22.2 µM | 30.6 µM | – | 23.7 µM | 43.3 µM | 32.2 µM | 14.5 µM | 15.7 µM | 13.1 µM | 1.78 µM | 13.7 µM | 1.75 µM | – | 10.6 µM | 10.5 µM | 10.2 µM | 8.61 µM |
| Cc1cccc(NC(=O)C(=O)Cc2nc3ccccc3[nH]c2=O)c1C | > 100 µM | – | > 100 µM | > 100 µM | > 100 µM | > 100 µM | > 100 µM | > 100 µM | > 100 µM | > 100 µM | – | – | – | – | – | – | – | – | – | – |
| Cc1cccc2nc(-c3ccccc3)cc(=O)n12 | > 100 µM | – | > 100 µM | > 100 µM | > 100 µM | > 100 µM | > 100 µM | > 100 µM | > 100 µM | > 100 µM | – | – | – | – | – | – | – | – | – | – |
